Assay results: the METLIN SMRT retention time set (Domingo-Almenara et al. 2019)

Experiment: gradient 5% acetonitrile 3 min, to 50% in 2 min, to 85% in 15 min, held 3 min, 100 µL/min
Conditions: column: Zorbax Extend-C18 2.1 x 50 mm; eluents: water / acetonitrile, 0.1% formic acid
Method in brief: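 Data were gathered over 3 months by HPLC coupled to a quadrupole time-of-flight mass spectrometer, operated in positive and negative ionization mode. Mixtures of ~100 pure standards ran on a Zorbax Extend-C18 column (2.1 × 50 mm, 1.8 μm) at 100 μL/min, with water and acetonitrile each containing 0.1% formic acid and dead and dwell volumes of 40 μL and 900 μL. Retention time was read from adduct peaks picked by computer and checked manually.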

Compound	RP-LC retention time [s]
Cc1noc(C)c1CC(=O)N1CCCn2cc(-c3ccccc3F)nc21	710
O=C(Cc1nc(-c2cnccn2)n[nH]1)NCc1ccccc1	583
CCOc1ccc(-c2nc(NC(=O)c3sc(C)nc3C)sc2C)cc1	976
Cc1cc(N2CCN(c3ccccc3)CC2)nc2ccccc12	710
O=[N+]([O-])c1cccc(-c2nnc(-c3ccccc3)o2)c1	887
Cc1nn(-c2ccc(SCC(=O)NC(C)C)nn2)c(C)c1C	776
CCNc1nc(NC(C)C)nc(-c2ccncc2)n1	733
Cc1cc(C)c(NC(=O)Cn2nc3c(N4CCCCCC4)nccn3c2=O)c(C)c1	757
CC(C)CNC(=O)c1ccc2nc(CCc3ccc(NC(=O)C(C)C)cc3)[nH]c2c1	644
COc1cccc(CNC(=O)c2nc3cccnc3n(CC(C)C)c2=O)c1	850
COCCNC(=O)CN1c2ccc(F)cc2-c2ccccc2S1(=O)=O	756
COc1ccc(N2CCn3c2nn(CC(=O)NCc2ccco2)c(=O)c3=O)cc1	634
Cc1ccc(Cn2c(=O)n(CCNC(=O)C(C)C)c3ncccc32)cc1	769
COc1ccc(C(=O)N2CCCC2c2nc(-c3ccc(OC)c(OC)c3)no2)cc1F (configuration not stated)	876
CC(C)c1nc2cc3c(cc2n1CC(=O)Nc1ccccc1)OCCO3	674
Cc1csc(NC(=O)CSc2ccc(-c3cccs3)nn2)n1	750
CC(C)(C)OC(=O)N1CCN(c2ncnc(N)c2[N+](=O)[O-])CC1	691
Cc1nc(-c2cccc(F)c2)sc1C(=O)NC1CC1	827
COc1ccc(NS(=O)(=O)c2cc3c(s2)CCN(C(=O)C2CCC2)C3)cc1	831
Cc1ncsc1CN1CCC(Oc2ccccc2-c2nc(C3CC3)no2)C1 (configuration not stated)	653
Cc1nn(CC(=O)NCCN2CCOCC2)c(=O)c2c(-n3cccc3)n(-c3ccc(F)cc3)nc12	654
COc1ccc(-c2nnc(-c3ccc(C)c(S(=O)(=O)NC(C)C(=O)O)c3)o2)cc1OC (configuration not stated)	748

The next lines start with the values.

RP-LC retention time [s]	Compound
767	O=C(Cc1ccc(Br)cc1)NC1CCN(c2cc(-c3cccs3)[nH]n2)C1 (configuration not stated)
578	O=C(c1cccc(N2CCCS2(=O)=O)c1)N1CCN(c2ccccn2)CC1
589	COc1ccc(C2C(C(=O)NCCN(C)C)c3cc(OC)c(OC)cc3C(=O)N2C)cc1OC (configuration not stated)
766	O=C(NCc1ccc2c(c1)OCO2)C1CCN(C(=O)c2ccc(Cl)cc2)CC1
640	Cc1noc(C)c1CC(=O)NCCn1ncc2c(=O)n(Cc3ccc(F)cc3)cnc21
737	O=C(Nc1ccccc1F)N1CCN(Cc2nc3cc(Cl)ccc3o2)CC1
674	Cc1ccc(N2N=C(C(=O)N3CCN(CC(C)C)CC3)S(=O)(=O)c3cccnc32)cc1
556	O=C(CCc1ccccc1)NCC1CCN(Cc2ccccn2)CC1
1150	O=C(c1cccs1)N1CCc2cc(-c3csc(C4CC4)n3)ccc21
951	COc1ccccc1CNC(=O)c1cn(C)nc1S(=O)(=O)N1CCC(C)CC1
1030	CCc1nn2c(CNC(=O)c3cccc(Br)c3)c(-c3ccccc3)nc2s1
728	CCCCNC(=O)C1CCN(S(C)(=O)=O)c2ccccc2O1 (configuration not stated)
1220	CCOC(=O)c1ccccc1NC(=O)N1CCOc2ccc(C)cc21
632	O=C(c1ccc(Br)cc1)N1CCN=C1N1CCN(c2ccccc2F)CC1
931	CSc1ccc(CNC(=O)C2CCN(c3nnc(-c4ccc(C)cc4)o3)CC2)cc1
